Several values for one entry are separate records, joined by “and”; a condition that tells them apart may be missing. Equal entries are not always repeated.
How the values were obtained:
[1] = test system: BV2 microglial cells, stimulated with lipopolysaccharide (LPS); test: TNFα ELISA in LPS-stimulated BV2 cells; assay type: cell-based, mouse; details: 0.1, 1.0, 2.5, 5.0 μM
Description: BV2 cells were a gift from Dr. Bob McCusker, University of Illinois. They were cultured and maintained at 37 °C in a humidified atmosphere of 95% air and 5% CO2 in high-glucose Dulbecco’s modified Eagle’s (DMEM) medium (Cat No. 10-013-CV, Corning Life Sciences), supplemented with 5% heat-inactivated fetal bovine serum (FBS), streptomycin (100 μg/mL), and penicillin (100 units/mL). Stocks of all the minor cannabinoids were made in ethanol and stored at −80 °C and diluted as required before cell treatment. A final concentration of ethanol was maintained at 0.1% in the cell culture experiments.
BV-2 cells were plated at a density of 50 000 cells/well in a 24-well plate at 37 °C under controlled conditions. Cells were pretreated with the minor cannabinoids at various concentrations (0.1, 1.0, 2.5, 5.0 μM) for 4 h and then stimulated with LPS for 24 h. The culture medium was removed and saved for the determination of nitric oxide production through Cayman’s Griess assay. IL-6, TNFα, and Arginase 1 production was also determined utilizing collected medium. For the Greiss assay, in a 96-well plate, 100 μL of culture medium was used, and 50 μL of both Greiss reagent-1 and Greiss reagent-2 was added and incubated for 10 min. The absorbance was measured at 540 nm using a plate reader (SpectraMax iD5). The quantification was done using a calibration curve that was generated using the sodium nitrite standard obtained from Cayman Chemicals.
BV-2 cells were pretreated with the minor cannabinoids as described previously for 4 h in serum media (reduced to 5% FBS). Cells were stimulated with LPS (25 ng/mL in growth media) and allowed to incubate for 24 h. The culture medium was collected, and the concentrations of IL-6 (Cayman Chemicals), TNFα (ThermoFisher Scientific), and arginase 1 (ThermoFisher Scientific) cytokine expression were determined using specific monoclonal antibodies by ELISA kits as per manufacturer’s instructions.

[2] = target: T1, CYP2C8 in the presence of CPR (Homo sapiens, UniProt P10632); test: Spectroscopic titration, CYP2C8–CPR complex; assay type: binding
T1 construct: His-tag; made in house; host or cells: E. coli DH-5α with pTGro7 plasmid (CYP)
T1 sequence (P10632 1-490): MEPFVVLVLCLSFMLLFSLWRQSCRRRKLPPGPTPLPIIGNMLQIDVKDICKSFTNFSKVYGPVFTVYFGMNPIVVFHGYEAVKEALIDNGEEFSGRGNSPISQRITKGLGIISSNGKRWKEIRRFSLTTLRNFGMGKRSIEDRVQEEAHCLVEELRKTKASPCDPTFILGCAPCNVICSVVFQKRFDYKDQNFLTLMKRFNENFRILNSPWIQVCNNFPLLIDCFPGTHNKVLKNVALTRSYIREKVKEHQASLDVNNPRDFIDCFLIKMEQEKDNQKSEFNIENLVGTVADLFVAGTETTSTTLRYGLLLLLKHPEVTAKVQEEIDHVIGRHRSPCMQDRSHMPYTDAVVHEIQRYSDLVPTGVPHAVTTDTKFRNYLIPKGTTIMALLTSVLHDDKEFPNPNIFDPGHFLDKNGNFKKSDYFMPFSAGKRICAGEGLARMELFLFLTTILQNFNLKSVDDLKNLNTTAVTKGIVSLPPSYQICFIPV
T1 sequence (P16435 1-677 partner): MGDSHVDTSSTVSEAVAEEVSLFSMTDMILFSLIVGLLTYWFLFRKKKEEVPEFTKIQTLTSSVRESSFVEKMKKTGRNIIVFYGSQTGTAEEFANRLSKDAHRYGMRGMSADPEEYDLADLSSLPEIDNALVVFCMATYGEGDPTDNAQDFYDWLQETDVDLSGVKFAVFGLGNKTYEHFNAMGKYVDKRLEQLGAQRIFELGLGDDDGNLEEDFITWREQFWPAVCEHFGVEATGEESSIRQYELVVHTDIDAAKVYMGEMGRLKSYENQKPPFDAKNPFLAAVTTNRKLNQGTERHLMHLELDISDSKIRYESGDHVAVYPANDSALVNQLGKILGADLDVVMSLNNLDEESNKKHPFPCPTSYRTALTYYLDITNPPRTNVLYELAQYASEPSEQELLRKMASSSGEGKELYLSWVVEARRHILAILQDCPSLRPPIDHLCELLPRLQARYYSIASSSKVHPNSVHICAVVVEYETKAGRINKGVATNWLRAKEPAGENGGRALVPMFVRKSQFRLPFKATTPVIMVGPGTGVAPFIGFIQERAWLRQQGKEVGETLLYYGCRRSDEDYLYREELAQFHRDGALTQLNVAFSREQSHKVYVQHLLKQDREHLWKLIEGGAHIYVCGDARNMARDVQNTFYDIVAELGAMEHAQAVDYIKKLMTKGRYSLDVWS
Description: For CBC titration to CYP–CPR complex, initially CYPs were dissolved in 400 μL of 0.1 M phosphate buffer (pH = 7.4) keeping the concentration between […]. Following this 50 μL of CPR (50 μM stock) was added to both cuvettes, and the final concentration of both of the proteins was 5–6 μM. Both proteins were initially mixed and incubated for 5 min followed by titration with CBC in the same process as mentioned above. The substrate-bound spectra were then subtracted from substrate-free spectra, and the extent of binding was analyzed using Origin Pro 2020.

Row | SMILES | effect on TNFα production [1] | ΔAmax (spin state change due to heme perturbation) [2] | Kd ([2]; read-out: Kd(app))
1 | CCCCCc1cc(O)c2c(c1)OC(C)(CC/C=C(\C)CO)C=C2 (stereo not drawn) [8′-hydroxy-CBC] | increase | – | –
2 | CCCCCc1cc(O)c2c(c1)OC(C)(CCC=C(C)C)C=C2 (stereo not drawn) [CBC, Cannabichromene] | – | 0.14 ± 0.00 and ~0.15 | 8.23 µM and ~8 µM and < 10 µM

— PMC11061835, “Elucidating the Mechanism of Metabolism of Cannabichromene by Human Cytochrome P450s” (Journal of Natural Products, 2024)
